Starred links: 1 amine or outer side, 2 acyl side, 3 side chain; linkers in the order of their positions; H or OH if unused. Positions of bridges follow the written chain, without caps; N, C: chain ends. Residues, ends and D or L forms follow the SMILES beside them. *: point of attachment. C18 diacid = O=C(O)CCCCCCCCCCCCCCCCC(=O)*; γGlu = O=C(O)[C@H](CCC(=O)[*:2])N[*:1]; AEEA = NCCOCCOCC(=O)O
Assay: Accelerated chemical stability (RP-UPLC recovery and LCMS degradation pattern, 37° C.)
Assay type: physicochemical
Set-up: Isomers TZ / Isomers 2 W / Loss of 18 amu TZ / Loss of 18 amu 2 W / Fragments TZ / Fragments 2 W / Fragments 1 W / Fragments 3 W / Fragments 4 W / Fragments 5 W / Fragments 6 W / Others 1 W / Others 3 W / Others 4 W / Others 5 W / Others 6 W / Isomers 1 W / Isomers 3 W / Isomers 4 W / Isomers 5 W / Isomers 6 W / Loss of 18 amu 1 W / Loss of 18 amu 3 W / Loss of 18 amu 4 W / Loss of 18 amu 5 W / Loss of 18 amu 6 W: unit not given here
Conditions: LCMS, 250 mM glycerol; for Fragments 2 W / Isomers 2 W / Loss of 18 amu 2 W / Others 2 W: 2 weeks at 37° C.; for Fragments TZ / Isomers TZ / Loss of 18 amu TZ / Others TZ: time zero
Protocol: In order to determine the chemical stability of CNP compounds in formulation, samples of CNP compounds in buffer were exposed to accelerated chemical degradation by heating. The stability of a given peptide was assessed by measuring recovery of intact peptide by quantification by RP-UPLC. To assess the chemical degradation pattern samples were also analysed by LC-MS.
Sample preparation: Samples for the 2 week study were prepared according to the principles described in Example 5.
Samples for the 6 week study were prepared by dissolving lyophilized peptide in buffer (8 mM phosphate, 250 mM glycerol, pH 7.4) to a nominal peptide concentration of 5000 nmol/ml followed by pH adjustment with 0.1 N HCl to pH 6.5.
Incubation: For the 2 week study a time-zero (TZ) sample was pulled and stored at −18° C. and the remaining volume was incubated at 37° C. Samples were pulled and stored at −18° C. after 2 weeks of incubation. Frozen samples were thawed, diluted to about 200 nmol/mL and the extent of chemical degradation was determined using LCMS as described.
For the 6 week study a time-zero (TZ) sample was pulled and stored at −18° C. and the remaining volume was incubated at 37° C. Samples were pulled on a weekly basis and stored at −18° C. until the last sampling time point at 6 weeks. Frozen samples were thawed, diluted to about 200 nmol/mL and the extent of chemical degradation was determined using RP-UPLC and LCMS as described.
Analysis of peptide recovery by RP-UPLC: The RP-UPLC method was performed on a Waters ACQUITY H-CLASS UPLC system fitted with a PDA detector. Separation was carried out on an ACQUITY UPLC BEH C8 Column (130 Å, 1.7 μm, 2.1 mm×150 mm) operating at a column temperature of 50° C. with eluent A (19.59 mM NH4H2PO4 41.71 mM (NH4)2HPO4, pH 6.5 and MeCN 9:1 v:v) and eluent B (80% MeCN in water). UV-detection was carried out at 214 nm. The analysis was performed by injection of 3 μL of sample onto the column which was eluted with a 1-step linear gradient of eluents A and B from 27 to 30% B over 20 minutes followed by a wash at 95% B over 2 minutes followed by a re-equilibration phase for 7 minutes at a constant flow rate of 0.3 mL/min. This yielded an analysis time of 30 minutes per sample. The area of the peak corresponding to intact CNP compound was given on a percentage scale relative to the total peptide peak area.
Analysis of chemical degradation patterns by LCMS: Samples were analysed on a […] UPLC from Thermo Scientific, using a Waters Acquity C18 reversed-phase column, 300 Å, […] particles 1 mm×150 mm. The compounds were separated by a linear gradient of solvent B from 5% to 55% over 48 minutes, using solvent A: water, 0.1% formic acid with 0.02% TFA and solvent B: acetonitrile, 0.1% formic acid with 0.02% TFA. Mass spectra were acquired by a Q Exactive Plus hybrid Quadrupole-Orbitrap mass spectrometer, BioPharma option (Thermo Scientific) interfaced with H-ESI II ion source. Data acquisitions were performed with a m/z 500 to 2000 scan range and a resolution of 30000.
The data list was aggregated into a summed table of the compounds. The table headers were defined as follows: […]
Results: The results from LCMS analysis of a 2 week accelerated degradation study on several CNP compounds of the present invention are summarised in Table 12. The results from RP-UPLC and LCMS analysis of a 6 week accelerated degradation study on CNP compound 9482 (Chem. 137) is summarised in Table 13 and Table 14 respectively.

SMILES | Fragments 2 W (8 mM sodium phosphate, pH 6.5) | Isomers 2 W (8 mM sodium phosphate, pH 6.5) | Loss of 18 amu 2 W (8 mM sodium phosphate, pH 6.5) | Others 2 W (8 mM sodium phosphate, pH 6.5) | Fragments TZ (8 mM sodium phosphate, pH 6.5) | Isomers TZ (8 mM sodium phosphate, pH 6.5) | Loss of 18 amu TZ (8 mM sodium phosphate, pH 6.5) | Others TZ (8 mM sodium phosphate, pH 6.5) | Fragments 2 W (5 mM sodium acetate, pH 4) | Isomers 2 W (5 mM sodium acetate, pH 4) | Loss of 18 amu 2 W (5 mM sodium acetate, pH 4) | Others 2 W (5 mM sodium acetate, pH 4) | Fragments TZ (5 mM sodium acetate, pH 4) | Isomers TZ (5 mM sodium acetate, pH 4) | Loss of 18 amu TZ (5 mM sodium acetate, pH 4) | Others TZ (5 mM sodium acetate, pH 4)
CC[C@H](C)[C@@H]1NC(=O)[C@H](CCCNC(=N)N)NC(=O)[C@H](CC(=O)O)NC(=O)[C@H](CC(C)C)NC(=O)[C@@H]2CCCN2C(=O)[C@H](CC(C)C)NC(=O)CNC(=O)[C@H](Cc2ccccc2)NC(=O)[C@@H](NC(=O)CNC(=O)[C@H](CCC(N)=O)NC(=O)[C@H](CO)NC(=O)[C@H](CC(C)C)NC(=O)CNC(=O)[C@H](CCCCN)NC(=O)[C@H](CCCCN)NC(=O)[C@H](CCC(N)=O)NC(=O)[C@H](C)NC(=O)CNC(=O)[C@H](CCCCN)NC(=O)[C@H](Cc2ccc(O)cc2)NC(=O)[C@H](CCCCN)NC(=O)[C@H](CCCNC(=N)N)NC(=O)[C@H](C)NC(=O)COCCOCCNC(=O)COCCOCCNC(=O)COCCOCCNC(=O)COCCOCCNC(=O)CC[C@H](NC(=O)CC[C@H](NC(=O)CC[C@H](NC(=O)CC[C@H](NC(=O)CC[C@H](NC(=O)CCCCCCCCCCCCCCCCC(=O)O)C(=O)O)C(=O)O)C(=O)O)C(=O)O)C(=O)O)CSSC[C@@H](C(=O)O)NC(=O)CNC(=O)[C@H](CC(C)C)NC(=O)CNC(=O)[C@H](CO)NC(=O)[C@H](CC(C)C)NC(=O)[C@H](CO)NC(=O)CNC1=O [Compound 9407] ({C18 diacid-γGlu-γGlu-γGlu-γGlu-γGlu-AEEA-AEEA-AEEA-AEEA}-ARKYKGAQKKGLSQGCFGLPLDRIGSLSGLGC-OH; disulfide 16-32) | 0.7 | 1.1 | 0 | 0.3% | 0 | 0 | 0 | 0.1% | – | – | – | – | – | – | – | –
CC[C@H](C)[C@@H]1NC(=O)[C@H](CCCNC(=N)N)NC(=O)[C@H](CC(=O)O)NC(=O)[C@H](CC(C)C)NC(=O)[C@@H]2CCCN2C(=O)[C@H](CC(C)C)NC(=O)CNC(=O)[C@H](Cc2ccccc2)NC(=O)[C@@H](NC(=O)CNC(=O)[C@H](CCC(N)=O)NC(=O)[C@H](CO)NC(=O)CNC(=O)CNC(=O)[C@H](CCCCN)NC(=O)[C@H](CCCCN)NC(=O)[C@H](CCC(N)=O)NC(=O)[C@H](C)NC(=O)CNC(=O)[C@H](CCCCN)NC(=O)[C@H](Cc2ccc(O)cc2)NC(=O)COCCOCCNC(=O)COCCOCCNC(=O)COCCOCCNC(=O)COCCOCCNC(=O)CC[C@H](NC(=O)CC[C@H](NC(=O)CCCCCCCCCCCCCCCCC(=O)O)C(=O)O)C(=O)O)CSSC[C@@H](C(=O)O)NC(=O)CNC(=O)[C@H](CC(C)C)NC(=O)CNC(=O)[C@H](CO)NC(=O)[C@H](CC(C)C)NC(=O)[C@H](CO)NC(=O)CNC1=O [Compound 9435] ({C18 diacid-γGlu-γGlu-AEEA-AEEA-AEEA-AEEA}-YKGAQKKGGSQGCFGLPLDRIGSLSGLGC-OH; disulfide 13-29) | – | – | – | – | – | – | – | – | 0 | 0.6 | 4.1 | 0% | 0 | 0 | 0 | 0%
CC[C@H](C)[C@@H]1NC(=O)[C@H](CCCNC(=N)N)NC(=O)[C@H](CC(=O)O)NC(=O)[C@H](CC(C)C)NC(=O)[C@@H]2CCCN2C(=O)[C@H](CC(C)C)NC(=O)CNC(=O)[C@H](Cc2ccccc2)NC(=O)[C@@H](NC(=O)CNC(=O)[C@H](CCC(N)=O)NC(=O)[C@H](CO)NC(=O)[C@H](CC(C)C)NC(=O)CNC(=O)[C@H](CCCCN)NC(=O)[C@H](CCCCN)NC(=O)[C@H](CCC(N)=O)NC(=O)[C@H](C)NC(=O)CNC(=O)[C@H](CCCCN)NC(=O)[C@H](Cc2ccc(O)cc2)NC(=O)COCCOCCNC(=O)COCCOCCNC(=O)COCCOCCNC(=O)COCCOCCNC(=O)CC[C@H](NC(=O)CC[C@H](NC(=O)CC[C@H](NC(=O)CCCCCCCCCCCCCCCCC(=O)O)C(=O)O)C(=O)O)C(=O)O)CSSC[C@@H](C(=O)O)NC(=O)CNC(=O)[C@H](CC(C)C)NC(=O)CNC(=O)[C@H](CO)NC(=O)[C@H](CC(C)C)NC(=O)[C@H](CO)NC(=O)CNC1=O [Compound 9480] ({C18 diacid-γGlu-γGlu-γGlu-AEEA-AEEA-AEEA-AEEA}-YKGAQKKGLSQGCFGLPLDRIGSLSGLGC-OH; disulfide 13-29) | 0 | 0 | 0 | 0.6% | 0 | 0 | 0 | 0% | – | – | – | – | – | – | – | –
CC[C@H](C)[C@@H]1NC(=O)[C@H](CCCNC(=N)N)NC(=O)[C@H](CC(=O)O)NC(=O)[C@H](CC(C)C)NC(=O)[C@@H]2CCCN2C(=O)[C@H](CC(C)C)NC(=O)CNC(=O)[C@H](Cc2ccccc2)NC(=O)[C@@H](NC(=O)CNC(=O)[C@H](CO)NC(=O)[C@H](CO)NC(=O)[C@H](CC(C)C)NC(=O)CNC(=O)[C@H](CCCCN)NC(=O)[C@H](CCCCN)NC(=O)[C@H](CCC(N)=O)NC(=O)[C@H](C)NC(=O)CNC(=O)[C@H](CCCCN)NC(=O)[C@H](Cc2ccc(O)cc2)NC(=O)[C@H](CCCCN)NC(=O)[C@H](CCCNC(=N)N)NC(=O)[C@H](C)NC(=O)[C@H](CCC(N)=O)NC(=O)[C@@H]2CCCN2C(=O)[C@H](Cc2c[nH]cn2)NC(=O)[C@H](CCC(=O)O)NC(=O)[C@H](CCC(N)=O)NC(=O)CC[C@H](NC(=O)CC[C@H](NC(=O)CC[C@H](NC(=O)CC[C@H](NC(=O)CC[C@H](NC(=O)CCCCCCCCCCCCCCCCC(=O)O)C(=O)O)C(=O)O)C(=O)O)C(=O)O)C(=O)O)CSSC[C@@H](C(=O)O)NC(=O)CNC(=O)[C@H](CC(C)C)NC(=O)CNC(=O)[C@H](CO)NC(=O)[C@H](CC(C)C)NC(=O)[C@H](CO)NC(=O)CNC1=O [Compound 9482] ({C18 diacid-γGlu-γGlu-γGlu-γGlu-γGlu}-QEHPQARKYKGAQKKGLSSGCFGLPLDRIGSLSGLGC-OH; disulfide 21-37) | 0 | 0 | 0 | 0.3% | 0 | 0 | 0 | 0% | – | – | – | – | – | – | – | –

Reference: patent US20240209028A1, “CNP COMPOUNDS” (priority 2022, published 2024)
